Data: publication PMC5520944 (Cell Death & Disease, 2017)

Assays:
Format in all cases: cell-based
RIPK1 = target: T1, RIPK1 (Mus musculus, UniProt Q60855); test: streptavidin pull down from cell lysate, immunoblot
T1 construct: endogenous, L929sAhFas and MEF cell lysates
T1 sequence (Q60855 1-656): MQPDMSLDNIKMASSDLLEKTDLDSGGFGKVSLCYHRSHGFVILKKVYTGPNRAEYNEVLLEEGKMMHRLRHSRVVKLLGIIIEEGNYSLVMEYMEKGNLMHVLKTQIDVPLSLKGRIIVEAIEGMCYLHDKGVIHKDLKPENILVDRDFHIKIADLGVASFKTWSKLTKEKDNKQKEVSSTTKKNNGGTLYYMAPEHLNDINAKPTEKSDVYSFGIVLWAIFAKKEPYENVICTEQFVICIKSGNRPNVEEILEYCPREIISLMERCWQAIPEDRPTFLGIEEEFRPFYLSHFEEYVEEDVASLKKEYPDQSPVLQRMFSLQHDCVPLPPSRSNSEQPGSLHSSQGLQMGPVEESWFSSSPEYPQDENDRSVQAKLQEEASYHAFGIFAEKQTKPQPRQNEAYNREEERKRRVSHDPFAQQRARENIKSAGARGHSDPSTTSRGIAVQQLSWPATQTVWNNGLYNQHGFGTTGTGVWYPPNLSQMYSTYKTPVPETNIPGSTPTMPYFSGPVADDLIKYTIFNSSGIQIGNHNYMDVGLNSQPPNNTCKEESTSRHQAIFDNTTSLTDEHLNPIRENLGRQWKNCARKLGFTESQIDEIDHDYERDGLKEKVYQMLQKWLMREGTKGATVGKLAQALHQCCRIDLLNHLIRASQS

B-Raf = target: T2, B-Raf (Mus musculus, UniProt P28028); test: as above
T2 construct: gene Braf; endogenous, L929sAhFas cell lysate

RIPK3 = target: T3, RIPK3 (Mus musculus, UniProt Q9QZL0); test: as above
T3 construct: endogenous, L929sAhFas and MEF cell lysates

MLKL = target: T4, MLKL (Mus musculus, UniProt Q9D2Y4); test: streptavidin pull down from lysates, including RIPK1-/- and RIPK3-/- MEF
T4 construct: endogenous, L929sAhFas and MEF cell lysates
T4 sequence (Q9D2Y4 1-472): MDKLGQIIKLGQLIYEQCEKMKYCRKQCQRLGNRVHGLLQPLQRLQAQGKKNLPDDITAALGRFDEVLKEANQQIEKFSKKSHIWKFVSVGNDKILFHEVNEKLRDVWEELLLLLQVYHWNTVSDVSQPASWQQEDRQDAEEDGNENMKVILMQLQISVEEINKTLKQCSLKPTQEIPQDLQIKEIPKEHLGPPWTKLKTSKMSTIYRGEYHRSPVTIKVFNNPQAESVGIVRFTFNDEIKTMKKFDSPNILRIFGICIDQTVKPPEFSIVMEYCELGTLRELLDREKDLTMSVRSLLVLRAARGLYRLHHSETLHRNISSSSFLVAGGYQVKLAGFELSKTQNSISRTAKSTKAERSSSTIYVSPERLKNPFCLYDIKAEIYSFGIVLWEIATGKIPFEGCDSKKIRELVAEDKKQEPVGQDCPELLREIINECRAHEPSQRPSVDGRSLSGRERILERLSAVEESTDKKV

T2 sequence (P28028 2-751): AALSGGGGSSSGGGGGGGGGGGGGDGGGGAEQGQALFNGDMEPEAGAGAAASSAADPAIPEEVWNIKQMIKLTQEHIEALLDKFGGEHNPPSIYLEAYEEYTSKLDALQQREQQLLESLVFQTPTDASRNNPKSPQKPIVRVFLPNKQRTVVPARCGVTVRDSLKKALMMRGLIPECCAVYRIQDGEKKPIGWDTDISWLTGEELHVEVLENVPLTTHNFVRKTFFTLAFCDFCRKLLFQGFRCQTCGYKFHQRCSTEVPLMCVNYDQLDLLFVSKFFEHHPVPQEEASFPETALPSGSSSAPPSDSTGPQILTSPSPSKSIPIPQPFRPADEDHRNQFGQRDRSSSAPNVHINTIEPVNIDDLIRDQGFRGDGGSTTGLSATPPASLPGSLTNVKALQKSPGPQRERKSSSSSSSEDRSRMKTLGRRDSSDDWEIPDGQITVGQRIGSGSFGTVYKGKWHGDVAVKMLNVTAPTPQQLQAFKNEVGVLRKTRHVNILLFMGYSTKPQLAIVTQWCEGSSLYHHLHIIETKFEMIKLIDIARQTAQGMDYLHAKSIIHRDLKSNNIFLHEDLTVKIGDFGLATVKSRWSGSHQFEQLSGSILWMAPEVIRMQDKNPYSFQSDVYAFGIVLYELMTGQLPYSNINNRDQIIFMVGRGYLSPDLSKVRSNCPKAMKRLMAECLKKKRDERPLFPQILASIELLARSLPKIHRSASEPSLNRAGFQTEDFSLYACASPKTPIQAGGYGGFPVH
T3 sequence (Q9QZL0 whole entry): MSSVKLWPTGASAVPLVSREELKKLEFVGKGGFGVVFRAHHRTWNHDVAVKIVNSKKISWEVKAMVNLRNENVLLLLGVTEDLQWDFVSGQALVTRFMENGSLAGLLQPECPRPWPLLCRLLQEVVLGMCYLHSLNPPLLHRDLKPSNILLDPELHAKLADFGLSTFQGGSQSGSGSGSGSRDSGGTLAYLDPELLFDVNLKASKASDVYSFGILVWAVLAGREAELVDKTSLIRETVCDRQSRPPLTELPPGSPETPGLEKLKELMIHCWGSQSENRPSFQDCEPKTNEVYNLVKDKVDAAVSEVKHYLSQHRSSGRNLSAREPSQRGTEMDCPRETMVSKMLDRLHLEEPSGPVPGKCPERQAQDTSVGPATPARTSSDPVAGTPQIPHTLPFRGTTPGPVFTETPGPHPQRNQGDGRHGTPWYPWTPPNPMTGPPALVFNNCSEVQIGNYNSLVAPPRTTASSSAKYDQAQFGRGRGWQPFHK

O=C(CCCC[C@@H]1SC[C@@H]2NC(=O)N[C@@H]21)NCCOCCOCCNC(=O)c1cc(Oc2ccc(NC(=O)Nc3ccc(Cl)c(C(F)(F)F)c3)cc2)ccn1 [compound 10, biotinylated Sorafenib]
streptavidin pull down from cell lysate, immunoblot (RIPK1): We show a dose-dependent pull down of RIPK1, RIPK3, MLKL and B-Raf | streptavidin pull down from cell lysate, immunoblot (B-Raf): We show a dose-dependent pull down of RIPK1, RIPK3, MLKL and B-Raf | streptavidin pull down from cell lysate, immunoblot (RIPK3): We show a dose-dependent pull down of RIPK1, RIPK3, MLKL and B-Raf | streptavidin pull down from lysates, including RIPK1-/- and RIPK3-/- MEF (MLKL): Sorafenib is likely to bind independently to RIPK1, RIPK3 or MLKL (Figure 4c), even in the absence of a necroptotic stimulus
